Test [1] concerns the target T1, dopamine (DA) transporter (Homo sapiens, UniProt Q01959). Conditions: for Slope, Dopamine (DA) transporter: Table 1, binding curve slope.
Test [2] has as its target T2, serotonin (5-HT) transporter (Homo sapiens, UniProt P31645). Conditions: for Slope, Serotonin (5-HT) transporter: Table 1, binding curve slope.
Test [3] deals with T3, norepinephrine (NE) transporter (Homo sapiens, UniProt P23975).
Target sequence in this assay (P23975 whole entry): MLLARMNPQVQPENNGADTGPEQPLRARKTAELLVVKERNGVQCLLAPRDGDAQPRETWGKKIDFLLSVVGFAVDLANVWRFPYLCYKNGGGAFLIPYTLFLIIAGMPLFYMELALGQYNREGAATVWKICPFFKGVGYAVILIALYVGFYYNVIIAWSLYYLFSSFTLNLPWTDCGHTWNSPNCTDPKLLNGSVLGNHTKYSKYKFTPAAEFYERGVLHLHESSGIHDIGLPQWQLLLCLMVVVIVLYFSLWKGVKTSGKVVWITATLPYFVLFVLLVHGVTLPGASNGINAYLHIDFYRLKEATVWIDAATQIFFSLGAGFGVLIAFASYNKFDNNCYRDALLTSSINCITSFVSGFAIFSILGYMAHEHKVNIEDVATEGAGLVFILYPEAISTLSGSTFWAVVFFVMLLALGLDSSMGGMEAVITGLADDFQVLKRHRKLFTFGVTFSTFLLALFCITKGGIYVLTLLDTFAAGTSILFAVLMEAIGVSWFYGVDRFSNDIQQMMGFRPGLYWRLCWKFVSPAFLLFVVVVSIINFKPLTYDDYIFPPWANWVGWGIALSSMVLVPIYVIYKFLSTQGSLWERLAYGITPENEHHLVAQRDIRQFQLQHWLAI
Test [4] concerns the target T1, dopamine (DA) transporter. Conditions: Table 2; data derived from literature; read-out: Affinity (Ki), Dopamine (DA) transporter; cited from earlier work.
In test [5] the target is T3, norepinephrine (NE) transporter. Conditions: Table 2; data derived from literature; read-out: Affinity (Ki), Norepinephrine (NE) transporter; cited from earlier work.
Target sequence in this assay (P23975 whole entry, species assumed): as the sequence (P23975 whole entry) above
Test [6] concerns the target T2, serotonin (5-HT) transporter. Conditions: Table 2; data derived from literature; read-out: Affinity (Ki), 5-Hydroxy Tryptamine (5-HT) transporter; cited from earlier work.

Consider five molecules from patent publication US8772330B2, “Inhibitor(s) of transporters or uptake of monoaminergic neurotransmitters” (State of Oregon acting by and through the State Board of …, priority 2009, dated 2014).

Counter-ions that a name gives are not always drawn.

As usually defined, the Ki is the dissociation constant of the complex between target and ligand, obtained from inhibition or displacement.

T1 sequence (Q01959 whole entry): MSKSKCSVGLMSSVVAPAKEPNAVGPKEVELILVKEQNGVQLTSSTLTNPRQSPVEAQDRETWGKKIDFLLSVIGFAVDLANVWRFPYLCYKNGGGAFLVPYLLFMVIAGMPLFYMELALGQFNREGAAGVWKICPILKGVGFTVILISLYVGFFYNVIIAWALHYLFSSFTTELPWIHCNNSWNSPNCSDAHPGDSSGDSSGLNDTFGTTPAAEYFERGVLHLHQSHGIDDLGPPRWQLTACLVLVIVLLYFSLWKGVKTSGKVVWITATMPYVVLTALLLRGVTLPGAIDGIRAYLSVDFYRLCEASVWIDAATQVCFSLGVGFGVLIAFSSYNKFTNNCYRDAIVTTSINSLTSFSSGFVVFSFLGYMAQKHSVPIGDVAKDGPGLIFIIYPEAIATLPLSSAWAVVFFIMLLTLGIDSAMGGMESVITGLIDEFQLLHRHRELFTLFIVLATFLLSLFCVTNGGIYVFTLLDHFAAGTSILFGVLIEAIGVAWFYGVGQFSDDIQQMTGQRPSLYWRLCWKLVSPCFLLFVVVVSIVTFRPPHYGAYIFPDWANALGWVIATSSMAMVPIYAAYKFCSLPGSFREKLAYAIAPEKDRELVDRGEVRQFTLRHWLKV
T2 sequence (P31645 whole entry): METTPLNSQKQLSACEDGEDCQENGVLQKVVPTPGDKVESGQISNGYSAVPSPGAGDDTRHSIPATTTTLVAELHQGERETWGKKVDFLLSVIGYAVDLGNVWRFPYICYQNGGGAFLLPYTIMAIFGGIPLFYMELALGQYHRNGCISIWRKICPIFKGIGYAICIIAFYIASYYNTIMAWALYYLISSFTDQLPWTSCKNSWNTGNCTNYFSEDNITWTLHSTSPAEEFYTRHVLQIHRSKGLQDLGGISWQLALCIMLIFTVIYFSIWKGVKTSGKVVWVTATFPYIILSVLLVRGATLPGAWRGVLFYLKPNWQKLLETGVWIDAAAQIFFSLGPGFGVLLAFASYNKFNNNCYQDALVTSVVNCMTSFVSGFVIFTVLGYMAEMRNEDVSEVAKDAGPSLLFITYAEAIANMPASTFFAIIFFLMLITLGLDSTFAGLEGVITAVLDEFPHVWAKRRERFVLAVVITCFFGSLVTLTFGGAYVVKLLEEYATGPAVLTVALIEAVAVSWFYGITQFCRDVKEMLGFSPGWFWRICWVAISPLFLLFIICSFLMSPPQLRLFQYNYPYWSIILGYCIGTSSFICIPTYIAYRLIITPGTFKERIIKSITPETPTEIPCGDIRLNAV

In the case of `CNC[C@@H]1C[C@]1(Oc1cccc2ccccc12)c1cccs1` (racemic) [DWJW0002, (E)-N-Methyl-[2-(naphthalen-1-yloxy)-2-(thiophen-2-yl)cyclopropyl)methanamine Hydrochloride], the “Slope, Dopamine (DA) transporter” value in test [1] is listed as −1.11. The “Slope, Serotonin (5-HT) transporter” value in test [2] was −0.92. Also, the “times more potent than DWJW0003 as inhibitor of serotonin transporter” value in test [2] (with reference to Table 1) was “about 3 times”.

Turning to `CNCC1CC1(Oc1cccc2ccccc12)c1cccs1` (racemic) [DWJW0003, (Z)-N-Methyl-[2-(naphthalen-1-yloxy)-2-(thiophen-2-yl)cyclopropyl]methanamine Hydrochloride], the “Slope, Norepinephrine (NE) transporter” value in test [3] (Table 1, binding curve slope) is −0.84. Moreover, in test [3] (with reference to Table 1), the “times more potent than DWJW0002 as inhibitor of norepinephrine transporter” value is on record as “about 9 times”. Further, the “Slope, Dopamine (DA) transporter” value in test [1] is given as −1. In addition, in test [1] (with reference to Table 1), the “times more potent than DWJW0002 as inhibitor of dopamine transporter” value is “about 2 times”. For the same molecule, in test [2], the “Slope, Serotonin (5-HT) transporter” value is reported as −1.19.

For `Fc1ccc(C(OCCN2CCN(CCCc3ccccc3)CC2)c2ccc(F)cc2)cc1` [GBR12909, reference compound], in test [1], the “Slope, Dopamine (DA) transporter” value was −1.25. Besides, in test [1] (with reference to Table 1), the “times more potent than DWJW0002 as inhibitor of dopamine transporter” value was found to be 16 times and the “times more potent than DWJW0003 as inhibitor of dopamine transporter” value worked out at 8 times.

Take `CN(C)CCCN1c2ccccc2CCc2ccccc21` [Imipramine, reference compound]: the “Slope, Serotonin (5-HT) transporter” value in test [2] is reported as −1.06.

For `C#Cc1ccc([C@@H]2CN3CCC[C@@H]3c3ccccc32)cc1` [JNJ-7925476], the Ki was 5.2 ± 1 nM in test [4], 16.6 ± 7 nM in test [5] and 0.9 ± 0.1 nM in test [6].
